Read-outs that look alike come from different tables or passages of the source. Where a SMILES comes first, the peptide text is derived from it. [ ]: non-standard residue; d: D form. The star is where a group is joined. Sta = CC(C)C[C@H](N)[C@@H](O)CC(=O)O; Isovaleryl = CC(C)CC(=O)*
What was measured:
[1] = cited from earlier work
[2] = daily oral doses of 700 mg for up to three months; cited from earlier work
duodenal ulcer = conditions: 100 mg doses seven times a day, cited from earlier work
pepsin [3] = conditions: duodenal ulcer; cited from earlier work
stomach ulcers = conditions: rat, in vivo; cited from earlier work
pepsin [4] = conditions: patients with ulcer dyspepsia; cited from earlier work
gastric ulcer = conditions: 100 mg doses seven times a day, versus placebo; cited from earlier work
pepsin [5] = conditions: in the feed at >50 ppm; cited from earlier work
pepsin [6] = assay: 18 hour pylorus ligated rat; type: in vivo; conditions: 20 mg/kg po
[7] = all animal species studied; cited from earlier work
pepsin [8] = conditions: cited from earlier work

CC(C)CC(=O)N[C@H](C(=O)N[C@H](C(=O)N[C@@H](CC(C)C)[C@@H](O)CC(=O)N[C@@H](C)C(=O)N[C@@H](CC(C)C)[C@@H](O)CC(=O)O)C(C)C)C(C)C [pepstatin] (Isovaleryl-VV[Sta]A[Sta]-OH)
excreted in the feces ([1]; animal studies, oral, within 72 hours): more than 90%
absorption upon oral administration [1]: essentially unabsorbed
absorption upon oral administration ([1]; listed as Pepstatin): only poorly absorbed
side effects [2]: no side effects were observed
healing or symptomatology of duodenal ulcer (duodenal ulcer; versus placebo): no significant difference between pepstatin and placebo
duration of inhibition of peptic activity of gastric juice (duodenal ulcer): 18 hours a day
benefit in patients with duodenal ulcer (pepsin [3]): ineffective
formation of stomach ulcers (stomach ulcers): prevent the formation of stomach ulcers
effect on the gastric acidity (pepsin [4]): no effect
gastric peptic activity (pepsin [4]): inhibits gastric peptic activity
healing or symptomatology of gastric ulcer (gastric ulcer): not able to detect any influence
occurrence of ulcers (pepsin [5]): prevented the occurrence of ulcers
pepsin activity in the gastric juice (pepsin [5]): inhibited pepsin activity
pepsin activity (pepsin [6]): completely inhibited
ulcer formation (pepsin [6]): antagonized ulcer formation
LD50 [7]: exceeded 3000 mg/kg
duration of pepsin suppression (pepsin [8]): about 1 hours

From patent EP0099121A2, “Pharmaceutical compositions” (Bristol-Myers Company, priority 1982, dated 1984)
